# Earlier results in patent publication US8598236B2, “Emulsion system derived from engkabang fat esters” (Universiti Putra Malaysia, priority 2009, dated 2013).
# Settings: purchased nonionic surfactants
row,Substance,HLB value
1,polyoxyethylene (20) sorbitan tri-oleate [Tween85],11.0
2,sorbitan monolaurate [Span20],8.6
3,Sorbitan mono-oleate [Span80],4.3
